The text below walks through data of the supplement of paper PMC11061612.

Experiment in all cases: combination Emax (second highest fraction inhibited in the dose matrix, 72 h); higher = more inhibition; extreme values may be limits of the assay
Assay [1] deals with BxPC-3 (Pancreatic Carcinoma). A digest of the protocol: (§1)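 Bliss excess equals the observed combination effect minus the expected value EA + EB − EA·EB, where EA and EB are the effects of each agent alone. Combination Emax is the second-highest inhibition within the matrix. Inhibition was scaled from CellTiter-Glo 2.0 luminescence, with 0 set by vehicle wells and 1 by blank wells, after 72 hours of two-drug dosing of cells plated in 1536-well plates.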

Assay [2] deals with C-33-A (Cervical Carcinoma). An outline of the steps:
as §1

Assay [3] deals with COR-L88 (Small Cell Lung Carcinoma). A digest of the protocol: as §1
In a further assay the test system is ES6 (Ewing's Sarcoma). An outline of the steps: as §1
The subject of the next assay is GAK (Melanoma). An outline of the steps: as §1
Assay [4] deals with HPAF-II (Pancreatic Carcinoma). An outline of the steps:
as §1

For assay [5], the system named is IA-LM (Non-Small Cell Lung Carcinoma). A digest of the protocol: as §1
A further assay concerns IST-MEL1 (Melanoma). A digest of the protocol: as §1
Another assay relates to KALS-1 (Glioblastoma). An outline of the steps:
as §1

Assay [6] deals with LCLC-103H (Non-Small Cell Lung Carcinoma). An outline of the steps:
as §1

Assay [7] relates to MONO-MAC-6 (Acute Myeloid Leukemia). An outline of the steps:
as §1

In assay [8] the test system is NAMALWA (Burkitt's Lymphoma). An outline of the steps:
as §1

The next assay relates to NCI-H226 (Mesothelioma). A digest of the protocol:
as §1

Assay [9] relates to NCI-H3118 (Head and Neck Carcinoma). A digest of the protocol: as §1
The test system of assay [10] is RCC-JW (Kidney Carcinoma). A digest of the protocol: as §1
Assay [11] deals with SK-CO-1 (Colorectal Carcinoma). A digest of the protocol:
as §1

In the next assay the test system is SK-N-SH (Neuroblastoma). An outline of the steps:
as §1

For assay [12], the system named is SKG-IIIa (Cervical Carcinoma). A digest of the protocol:
as §1

Assay [13] relates to SNU-423 (Hepatocellular Carcinoma). An outline of the steps:
as §1

Assay [14] relates to T84 (Colorectal Carcinoma). A digest of the protocol: as §1

On to `Cc1nc(-c2cn3c(n2)-c2ccc(-c4cnn(C(C)(C)C(N)=O)c4)cc2OCC3)n(C(C)C)n1` [Taselisib] + O=C(Nc1ccc2[nH]nc(-c3ccncc3)c2c1)[C@@H]1CCN(CC(=O)N2CCN(c3ccc(-c4ncccn4)cc3)CC2)C1 [SCH772984] (first compound max 10 µM, 7x7, partner max 5 µM), for which the “combination Emax” value in assay [1] stood at 0.956; in assay [2] it was 0.661; in [3] it was 0.229; in the assay on ES6 (Ewing's Sarcoma), 0.639; in the assay on GAK (Melanoma) it was 0.944; in [4], 0.917. Also, the “combination Emax” value amounted to 0.399 in assay [5]; 0.885 in the assay with IST-MEL1 (Melanoma); 0.927 in the assay with KALS-1 (Glioblastoma); 0.472 in [6]; 0.964 in assay [7]; 0.65 in assay [8]. Moreover, the “combination Emax” value in the assay with NCI-H226 (Mesothelioma) came out at 0.393; in assay [9] it was 0.931; in assay [10], 0.638; in assay [11], 0.975; in the assay on SK-N-SH (Neuroblastoma), 0.72; in assay [12], 0.633. In addition, the “combination Emax” value in assay [13] worked out at 0.82; in assay [14], 0.96.
As for `CC1(C)CCC(CN2CCN(c3ccc(C(=O)NS(=O)(=O)c4ccc(NCC5CCOCC5)c([N+](=O)[O-])c4)c(Oc4cnc5[nH]ccc5c4)c3)CC2)=C(c2ccc(Cl)cc2)C1` [Venetoclax] + CS(=O)(=O)CCNCc1ccc(-c2ccc3ncnc(Nc4ccc(OCc5cccc(F)c5)c(Cl)c4)c3c2)o1 [Lapatinib] (first compound max 1 µM, 7x7, partner max 10 µM), the “combination Emax” value in assay [1] amounted to 0.244; in assay [2] it was 0.444; in assay [3], 0.534; in the assay with ES6 (Ewing's Sarcoma) it was 0.585; in the assay with GAK (Melanoma) it was 0.229; in [4] it was 0.192. The “combination Emax” value in assay [5] came out at 0.207; in the assay on IST-MEL1 (Melanoma), 0.293; in the assay with KALS-1 (Glioblastoma), 0.223; in assay [6], 0.208; in [7], 0.353; in assay [8], 0.25. For the same compound, the “combination Emax” value stood at 0.113 in the assay on NCI-H226 (Mesothelioma); 0.468 in [9]; 0.967 in assay [10]; 0.345 in assay [11]; 0.509 in the assay with SK-N-SH (Neuroblastoma); 0.201 in assay [12]. Further, the “combination Emax” value in assay [13] was 0.246; in assay [14], 0.25.
